From paper PMC12394552, “Multi-biological activity evaluation of Sn(П), Zn(П) and Fe(П) complexes based on thiocarbohydrazide schiff bases: synthesis, spectroscopic investigations and fluorescence studies” (Scientific Reports, 2025)
Converted amounts (≈) assume the structure as drawn.

Assays:
[1] = test system: Escherichia coli ATCC 8739; experiment: MIC determination, broth microdilution (EUCAST adapted); type: cell-based; conditions: ATCC8739, read-out: E. coli MIC value
Experimental: (§1) The compounds were tested against Gram-positive bacteria (Staphylococcus aureus ATCC 6538), Gram-negative bacteria (Escherichia coli ATCC 8739) and yeast (Candida albicansATCC10231). […] For bacterial strains, the EUCAST (2025) method was adapted. A few colonies of each bacterial culture previously grown on Mueller-Hinton agar for 24–48 h were suspended in normal saline and adjusted to 0.5 McFarland (1.5 × 10^8 CFU/mL). A 1/10 dilution was prepared in Mueller-Hinton broth (MHB) for the inoculation. In the wells of a 96-well flat-bottom microtiter plate, double serial dilutions of each compound were prepared in MHB. Each well was inoculated with the bacteria to achieve ca. 5 × 10^5 CFU/mL, and the plates were incubated at 37 °C overnight. Positive control (bacteria in culture medium only) and negative control (culture medium) were prepared. Each compound was tested in duplicate. After incubation, the plates were inspected visually for growth inhibition. To test the antimicrobial activity of DMSO, double serial dilutions of DMSO in broth medium were prepared and processed as the samples, but without the addition of the compounds. The antibacterial drug ciprofloxacin was used as a reference for comparison.
(§2) For Candida albicans, the same procedure applied to bacteria was used, except after inoculation, the plates were incubated at 35 °C for 24 h, and after incubation, the absorbance was measured at 530 nm using a plate reader. […] The absorbance of the wells was corrected by subtracting the absorbance of the blank. […] The antifungal drug fluconazole was used as a reference for comparison.

[2] = test system: Staphylococcus aureus ATCC 6538; experiment: as above; type: cell-based; conditions: ATCC6538, read-out: S. aureus MIC value
Experimental: as §1, §2

[3] = test system: Periodontal ligament fibroblasts (PDL); experiment: SRB selective cytotoxicity in normal fibroblasts; type: cell-based; conditions: SRB; normal PDL fibroblasts; unit printed for cisplatin cell and footnote
Experimental: (§3) All malignancy cell lines were cultured in high glucose DMEM (Bio Whittaker, Verviers, Belgium) containing 10% FBS, 4-(2-hydroxyethyl)-1-piperazineethanesulfonic acid (HEPES) Buffer (10 mM), L-glutamine (2 mM), gentamicin (50 µg/mL), penicillin (100 U/mL), and streptomycin sulfate ([…]) from Sigma (St. Luis, MO, USA) whereas Sulforhodamine B was from Santa Cruz Biotechnology (Inc. Texas, USA). Surviving cancer cell lines provide numerous advantages; they provide a pure and continuous supply of cells, thus overcoming any ethical barriers concerning human tissue usage, and are cost-effective. For cytotoxicity screening, adherent monolayers of all procured malignancies’ cell lines were examined. Periodontal ligament fibroblasts (PDL) were used to determine selective cytotoxicity.

A549 lung malignancy = experiment: SRB antiproliferative assay; type: cell-based, human; conditions: 72 h incubations; 3.125-200µM range; mean ± SD n = 4; read-out: Cytotoxicity (as of %Control) IC50 value, A549 lung malignancy
Experimental: as §3

[4] = test system: BT-549 invasive mammary malignancy; experiment: SRB antiproliferative assay; type: cell-based, human; conditions: 72 h incubations; 3.125-200µM range; mean ± SD n = 4; read-out: Cytotoxicity (as of %control) IC50 value, BT-549 invasive mammary malignancy
Experimental: as §3

Hela cervix malignancy = experiment: SRB antiproliferative assay; type: cell-based, human; conditions: 72 h incubations; 3.125-200µM range; mean ± SD n = 4; read-out: Cytotoxicity (as of %Control) IC50 value, Hela cervix malignancy
Experimental: as §3

MCF7 mammary malignancy = experiment: SRB antiproliferative assay; type: cell-based, human; conditions: 72 h incubations; 3.125-200µM range; mean ± SD n = 4; read-out: Cytotoxicity (as of %control) IC50 value, MCF7 mammary malignancy
Experimental: as §3

[5] = test system: MDA-MB-231 invasive mammary malignancy; experiment: SRB antiproliferative assay; type: cell-based, human; conditions: read-out: Cytotoxicity (as of %control) IC50 value, MDA-MB-231 invasive mammary malignancy; 72 h incubations; 3.125-200 µM range; mean ± SD n = 4
Experimental: as §3

[6] = test system: MDA-MB-453 invasive mammary malignancy; experiment: SRB antiproliferative assay; type: cell-based, human; conditions: 72 h incubations; 3.125-200µM range; mean ± SD n = 4; read-out: Cytotoxicity (as of %control) IC50 value, MDA-MB-453 invasive mammary malignancy
Experimental: as §3

[7] = test system: PANC1 pancreatic cell line; experiment: SRB antiproliferative assay; type: cell-based, human; conditions: 72 h incubations; 3.125-200µM range; mean ± SD n = 4; read-out: Cytotoxicity (as of %control) IC50 value, PANC1
Experimental: as §3

PC3 prostate malignancy = experiment: SRB antiproliferative assay; type: cell-based, human; conditions: 72 h incubations; 3.125-200µM range; mean ± SD n = 4; read-out: Cytotoxicity (as of %Control) IC50 value, PC3 prostate malignancy
Experimental: as §3

[8] = test system: SW480 colorectal cancer cell line; experiment: SRB antiproliferative assay; type: cell-based, human; conditions: 72 h incubations; 3.125-200µM range; mean ± SD n = 4; read-out: Cytotoxicity (as of %control) IC50 value, SW480
Experimental: as §3

T47D mammary malignancy = experiment: SRB antiproliferative assay; type: cell-based, human; conditions: 72 h incubations; 3.125-200µM range; mean ± SD n = 4; read-out: Cytotoxicity (as of %control) IC50 value, T47D mammary malignancy
Experimental: as §3

[9] = test system: Candida albicans ATCC10231; experiment: MIC determination, broth microdilution, absorbance 530 nm; type: cell-based; conditions: ATCC10231, 24 h, read-out: C. albicans MIC value at 50% inhibition
Experimental: as §1, §2

Work on O=C(O)c1cn(C2CC2)c2cc(N3CCNCC3)c(F)cc2c1=O [Ciprofloxacin, reference compound] yielded an MIC [1] of 0.8 ng/mL (≈ 0.00241 µM) and an MIC [2] of 0.097 µg/mL (≈ 0.293 µM).

In the case of N.N.[Cl][Pt][Cl] [Cisplatin, reference compound], the IC50 [3] is reported as 5.6 µM, the IC50 (A549 lung malignancy) is reported as 71.9 ± 2.9 µM and the IC50 [4] is reported as 3.77 ± 0.25 µM. It also gave an IC50 (Hela cervix malignancy) of 27.3 ± 0.9 µM, an IC50 (MCF7 mammary malignancy) of 31.6 ± 0.44 µM and an IC50 [5] of 11.8 ± 1.4 µM. For the same compound, the IC50 [6] was 9.8 ± 0.1 µM, the IC50 [7] was 41.5 ± 0.4 µM and the IC50 (PC3 prostate malignancy) was 12.5 ± 0.2 µM. It also gave an IC50 [8] of 8.92 ± 0.24 µM and an IC50 (T47D mammary malignancy) of 34.2 ± 0.5 µM.

Compound OC(Cn1cncn1)(Cn1cncn1)c1ccc(F)cc1F [Fluconazole, reference compound] has an MIC [9] of 3.9 µg/mL (≈ 12.7 µM).
